In publication PMC12203697, “Bioactive constituents from the edible seaweed Halymenia hawaiiana (Rhodophyta)” (Pharmaceutical Biology, 2025):
Values after ≈ are worked out from the molar mass of the structure shown. Read-outs that look alike come from different tables or passages of the source.

How the values were obtained:
[1] = Ferric-reducing antioxidant power (FRAP) assay
Protocol: The FRAP assay was used to evaluate antioxidant activity based on the ability of the sample to reduce Fe^3+-TPTZ (2,4,6-tris(2-pyridyl)-S-triazine) to Fe^2+-TPTZ (Benzie and Strain [1996]). This reduction results in a color change from colorless to blue. The absorbance was measured at 593 nm using a Microplate Reader (BioTek ELx800 Instruments Inc. Winooski, Vermont, USA) with the Gen 5 software for FRAP value calculations. A ferrous sulfate heptahydrate (FeSO4 · 7H2O) (Cat. No. 215422, Sigma-Aldrich, USA) standard curve, ranging from 1000 µM to 50 µM, was prepared for the assay. The FRAP reagent consists of 300 mM sodium acetate buffer (pH 3.6) (Cat. No. 90358, Sigma-Aldrich, USA), 10 mM TPTZ solution (Cat. No. T1253, Sigma-Aldrich, USA), and 20 mM ferric (III) chloride hexahydrate (FeCl3 · 6H2O) (Cat. No. 236489, Sigma-Aldrich, USA) in a 10:1:1 ratio, respectively, and heated to 37 °C for ten minutes before use. A blank was measured at 593 nm with 150 µL FRAP reagent added to each well of a 96-well microtiter plate. Samples (20 µL of each sample) (1, 0.5, 0.25 mg/mL) and ascorbic acid (Sigma-Aldrich, Cat. No. A4403) positive control (1 mg/mL) were added in triplicates. Reducing capacity was expressed by FRAP values in an µM FeSO4/µg sample unit.

[2] = tested on: S. marcescent; experiment: Antibacterial MIC, broth microdilution with resazurin; format: cell-based, Serratia marcescens; conditions: Gram-negative
Source text: (§1) Methicillin-resistant Staphylococcus aureus (MRSA), methicillin-susceptible S. aureus (MSSA), and Gram-negative clinical isolates of bacteria [Escherichia coli (9637) and Serratia marcescens ATCC 13880] were used for this study. […] MSSA HBP10, MSSA LUU7, MSSA R113, S. aureus ONE9, and MSSA POB2 were isolated in Hawaiʻi (Gerken et al. [2021]). Mueller Hinton Broth (MHB, GTIN:00382902979630, Becton, Dickinson and Company, Franklin Lakes, NJ, USA) and Mueller Hinton Agar (MHA, GTIN:00382902252504, Becton, Dickinson and Company, Franklin Lakes, NJ, USA,) were used for bacterial inoculation. MRSA was a pathogen strain causing hospital-acquired infections in 1982. This strain easily acquires resistance to antibiotics, such as vancomycin. MSSA strains isolated from the Island of Hawaiʻi included: Honolʻii Beach Park (HBP10) carry the genes erm(C), aph(3′)-III, and mecA, which provide resistance to macrolide, aminoglycoside, and beta-lactam antibiotics, respectively; Wailuku River (LUU7) which contains the blaZ gene (beta-lactam resistance) (Gerken et al. [2021]). Richardson’s Beach Park (R113) and Onekahakaha (ONE9) which is known for its virulence factors (hlgA, hlgB, hlgC, lukD, and lukE).
(§2) The minimum inhibitory concentrations (MICs) were determined using a two-fold serial dilution method with MHB following the recommendations of the Clinical and Laboratory Standards Institute (CLSI [2012]; Elshikh et al. [2016]). In brief, serial two-fold dilutions of the samples in DMSO were mixed with MHB in a 96-well microplate. Then, 50 µL of bacteria suspension was added to each well, resulting in a final concentration of 1 × 10^4 colony-forming units/well. The plates were incubated at 35–37 °C for 18–24 hr. After incubation, 10 µL of 0.18% resazurin (Cat. No. R7017, Sigma-Aldrich, USA) was added to each well (Elshikh et al. [2016]). The MIC was assessed within 2–3 hr after the addition of resazurin. All antimicrobial assays were performed in triplicate, using vancomycin (Cat. No. SBR00001, Sigma-Aldrich, USA) and gentamicin (Cat. No. G1397, Sigma-Aldrich, USA) as standard controls.

[3] = tested on: LPS-induced nitric oxide (NO) production in RAW 264.7 cells; experiment: Inhibition of NO generation in LPS-induced RAW 264.7 cells (Griess); format: cell-based, murine; conditions: RAW 264.7 cells, LPS-induced, highest concentration 50 μg/mL
Protocol: The nitrite concentration in the culture medium was measured to indicate nitric oxide (NO) production as previously described (Min et al. [2009]). The murine macrophage RAW 264.7 cell line was obtained from ATCC, Manassas, VA, USA, and maintained in Dulbecco’s modified Eagle’s medium supplemented with 10% heat-inactivated FBS (Cat. No. A5670801, Gibco BRL Co, Grand Island, NY, USA), penicillin G (100 units/mL) (Cat. No. P7794, Sigma-Aldrich, USA), streptomycin (100 µg/mL) (Cat. No. S9137, Sigma-Aldrich, USA), and L-glutamine (2 mM) (Cat. No. 25030081, Gibco BRL Co, Grand Island, NY, USA). In brief, RAW 264.7 cells were seeded at a density of 4 × 10^4 cells/well in phenol red-free media (Cat. No. 11835030, Gibco, USA) in a 96-well plate, and incubated in a humidified incubator with 5% CO2 at 37 °C for 24 hr. […] The concentration of nitric oxide production was assessed using the Griess reagent, which consists of a 1:1 (v/v) mixture of 1% sulfanilamide (Cat No. A13001, Alfa Aesar, Massachusetts, USA) in H3PO4 and N-(1-naphthyl)ethylenediamine dihydrochloride (Cat. No. 102397, MP Biomedicals, USA). Absorbance was recorded with a microplate reader (SynergyMx, BioTeK, Winooski, VT, USA) at 540 nm. A standard curve was created using sodium nitrite (1–100 μM) (Cat. No. 44227, Alfa Aesar, Massachusetts, USA). A sulforhodamine B (SRB) assay was employed to assess the cellular viability of the samples with RAW 264.7 cells under a similar experimental setup. The final % inhibition of NO production was adjusted based on cell viability.

[4] = tested on: S. aureus NEWMAN; experiment: Antibacterial MIC, broth microdilution with resazurin; format: cell-based, Staphylococcus aureus; conditions: Staphylococcus aureus; S. aureus NEWMAN, Gram-positive; read-out: MIC
Source text: as §1, §2

[5] = tested on: MRSA HBP10; experiment: as above; format: cell-based, Staphylococcus aureus; conditions: MRSA HBP10, Gram-positive
Source text: as §1, §2

[6] = tested on: MRSA POB2; experiment: as above; format: cell-based, Staphylococcus aureus; conditions: MRSA POB2, Gram-positive
Source text: as §1, §2

[7] = tested on: S. aureus CART817; experiment: as above; format: cell-based; conditions: Staphylococcus aureus; S. aureus CART817, Gram-positive; read-out: MIC
Protocol: as §2

[8] = tested on: A549 human lung carcinoma epithelial cells; experiment: SRB cytotoxicity assay, A549 cells; conditions: SRB assay, 72 h, highest concentration tested 100 µg/ml
Protocol: After incubation, cells were fixed with trichloroacetic acid (Cat. No. T4885, Sigma-Aldrich, USA), stained with SRB (Cat. No. S9012, Sigma-Aldrich, USA), and the absorbance was measured at 515 nm. Percent cell death was calculated using the following equation: % Cell death=(ODc−OD0)‐(ODs−OD0)/(ODc−OD0)×100
OD0 = Optical density of cells before treatment (baseline reading).
ODC = Optical density of untreated control cells after 72 h.
ODS = Optical density of cells treated with the test sample after 72 h.
Non-linear regression analysis was performed using GraphPad Prism to calculate the IC50 value. This value reflects the concentration needed to inhibit cell growth by 50%.
All data are presented as mean ± standard error of the mean (SEM) and were collected from three separate experiments. Statistical analyses were conducted using Student’s t-test or ANOVA, followed by Tukey’s multiple comparisons test. Significance is indicated by *p < 0.05, **p < 0.01, and ***p < 0.001.

[9] = tested on: E. coli; experiment: Antibacterial MIC, broth microdilution with resazurin; format: cell-based; conditions: Escherichia coli, Gram-negative
Source text: as §1, §2

[10] = tested on: S. aureus ONE9; experiment: as above; format: cell-based; conditions: Staphylococcus aureus; S. aureus ONE9, Gram-positive; read-out: MIC
Source text: as §1, §2

[11] = tested on: S. aureus 8325-4; experiment: as above; format: cell-based; conditions: Staphylococcus aureus, 83254; S. aureus 8325-4, Gram-positive; read-out: MIC
Source text: as §1, §2

[12] = tested on: MRSA USA300; experiment: as above; format: cell-based; conditions: Staphylococcus aureus; MRSA USA300, Gram-positive; read-out: MIC
Source text: as §1, §2

[13] = tested on: MSSA R113; experiment: as above; format: cell-based; conditions: Staphylococcus aureus; MSSA R113, Gram-positive; read-out: MIC
Source text: as §1, §2

[14] = tested on: MSSA LUU7; experiment: as above; format: cell-based; conditions: Staphylococcus aureus; MSSA LUU7, Gram-positive; read-out: MIC
Source text: as §1, §2

[15] = Serratia marcescens, read-out: MIC
[16] = Staphylococcus aureus, read-out: MIC

Structure (SMILES) | FRAP ([1]; FeSO4 standard curve) | FRAP ([1]; µM FeSO4/µg sample) | FRAP ([1]; µM FeSO4/µg sample, listed as ascorbic acid) | MIC [2, 15] | NO inhibitory activity (in words) [3] | MIC [4] | MIC [5, 16] | MIC [6, 16] | MIC [7] | cytotoxic response against A549 cells (in words) [8] | MIC [9] | MIC [10] | MIC [11] | MIC [12] | MIC [13] | MIC [14] | MIC [2] | MIC [5] | MIC [6]
O=C1O[C@H]([C@@H](O)CO)C(O)=C1O [Ascorbic acid, ascorbic acid, reference compound] | 2847.40 µM | 35.59 ± 0.09 µM/µg | 35.59 µM/µg | – | – | – | – | – | – | – | – | – | – | – | – | – | – | – | –
Nc1ncnc2c1ncn2[C@H]1C[C@H](O)[C@@H](CO)O1 [Compound 2, deoxyadenosine] | – | – | – | 64 µg/mL (≈ 255 µM) | no significant NO inhibitory activity | 128 µg/mL (≈ 509 µM) | 128 µg/mL (≈ 509 µM) | 128 µg/mL (≈ 509 µM) | 128 µg/mL (≈ 509 µM) | no cytotoxic response | 128 µg/mL (≈ 509 µM) | 128 µg/mL (≈ 509 µM) | 128 µg/mL (≈ 509 µM) | 128 µg/mL (≈ 509 µM) | 128 µg/mL (≈ 509 µM) | 128 µg/mL (≈ 509 µM) | – | – | –
Nc1cc[nH]c(=O)n1 [Compound 3, cytosine] | – | – | – | 128 µg/mL (≈ 1150 µM) | no significant NO inhibitory activity | 128 µg/mL (≈ 1150 µM) | 128 µg/mL (≈ 1150 µM) | 128 µg/mL (≈ 1150 µM) | 128 µg/mL (≈ 1150 µM) | no cytotoxic response | 128 µg/mL (≈ 1150 µM) | 128 µg/mL (≈ 1150 µM) | 128 µg/mL (≈ 1150 µM) | 128 µg/mL (≈ 1150 µM) | 128 µg/mL (≈ 1150 µM) | 128 µg/mL (≈ 1150 µM) | – | – | –
CCCCCCCCCCCCCCCC(C)=O [Compound 4, 2-heptadecanone] | – | – | – | – | – | – | – | – | – | – | – | – | – | – | – | – | Inactive | Inactive | Inactive
CCCCCCCCCCCCCCCC(=O)O [Compound 5, palmitic acid] | 88.06 µM | 1.10 ± 0.02 µM/µg | – | – | – | – | – | – | – | inactive | – | – | – | – | – | – | Inactive | Inactive | Inactive
CCCCCCCCCCCCCCCC(=O)OC [Compound 6, methyl palmitate] | 499.40 µM | 6.24 ± 0.07 µM/µg | – | – | – | – | – | – | – | – | – | – | – | – | – | – | Inactive | Inactive | Inactive
